Values quoted from earlier work, collected in patent publication US20070178561A1, “Anti-hiv-1 compounds based upon a conserved amino acid sequence shared by gp160 and the human cd4 protein” (priority 2003, published 2007).

What was measured:
HIV-1 = settings: in vitro viral cell growth assays using p24
gp160 = gp160 (Human immunodeficiency virus type 1 group M subtype B, UniProt P04578); settings: Jiang et al., Nature 365:113, 1993

Sequence: TNWLWYIKLFIMIVGGLVGLRIVFAKKKC [683-707KKKC]
- inhibition of viral growth (p24) (HIV-1): does not inhibit viral growth
- binding to gp160 (gp160): bound gp160
